Results taken from the OPERA property sets (Mansouri et al. 2018).
≈ marks a conversion by molar mass, not a printed value.

conditions: not given

Row | SMILES | logP | solubility [mM]
1 | COP(=S)(OC)Oc1c(Cl)cc(C)cc1Cl | 4.56 | –
2 | CCCCCCCCn1sccc1=O | 2.45 | –
3 | N#Cc1c[nH]cc1-c1cccc2c1OC(F)(F)O2 | 4.12 | –
4 | C=CCNC(=O)CN(CC=C)C(=O)C(Cl)Cl | 1 | –
5 | CCOP(=S)(OCC)OC(Cl)C(Cl)(Cl)Cl (stereo not given) | 4.59 | –
6 | CCCCN(CC)C(=O)SCCC | 3.83 | –
7 | OC(c1ccc(F)cc1)(c1cncnc1)c1ccccc1Cl (stereo not given) | 3.18 | –
8 | CCCSP(=S)(OCC)Oc1ccc(Cl)cc1Cl (stereo not given) | 5.67 | –
9 | COCC(C)N(C(=O)CCl)c1c(C)csc1C (stereo not given) | 2.15 | –
10 | CC(C)C1CCC(Cc2ccc(Cl)cc2)C1(O)Cn1cncn1 (stereo not given) | 4.21 | –
11 | O=C(O)COc1ccc(Cl)cc1CO | – | 9.23 (≈ 2000 µg/mL)
12 | CC(C)(C)c1ccc(CSc2cnn(C(C)(C)C)c(=O)c2Cl)cc1 | 6.37 | –
13 | CCOS(=O)(=O)c1ccc2c(c1)C(C)(C)CO2 | 2.41 | –
14 | O=C(NC(=O)c1c(F)cccc1F)Nc1cc(Cl)c(Oc2ncc(C(F)(F)F)cc2Cl)c(Cl)c1 | 5.8 | –
15 | COP(=S)(OC)SCC(=O)N(c1ccc(Cl)cc1)C(C)C | 3.81 | –
16 | CN(C)C(=O)Nc1cc(C(C)(C)C)on1 | 1.98 | –
17 | Cc1cnc(C2=NC(=O)C(C)(C(C)C)N2)c(C(=O)O)c1 (stereo not given) | 2.47 | –
18 | COCCOc1ccccc1S(=O)(=O)N=C(O)N=c1nc(OC)[nH]c(OC)n1 | 2.04 | –
19 | CCOCCOC(=O)C(C)Oc1ccc(Oc2ncc(C(F)(F)F)cc2Cl)cc1 (stereo not given) | 4.33 | –
20 | CCCCC(CC)CN1C(=O)C2C3C=CC(C3)C2C1=O (stereo not given) | 3.7 | –
21 | N=C(N)NCCCCCCCCNCCCCCCCCNC(=N)N | – | 2150 (≈ 764000 µg/mL)
22 | CS(=O)(=O)NC(=O)c1cc(Oc2ccc(C(F)(F)F)cc2Cl)ccc1[N+](=O)[O-] | 2.9 | –
23 | COc1ccc(C(=CC(=O)N2CCOCC2)c2ccc(Cl)cc2)cc1OC | 2.68 | –

Row | SMILES | logP | solubility [mM]
24 | CC1(C)CNC(=NN=C(/C=C/c2ccc(C(F)(F)F)cc2)/C=C/c2ccc(C(F)(F)F)cc2)NC1 | 2.31 | –
25 | CCOP(=S)(NC(C)CC)Oc1cc(C)ccc1[N+](=O)[O-] (stereo not given) | 4.62 | –
26 | N#Cc1c[nH]cc1-c1cccc(Cl)c1Cl | 3.86 | –
27 | Clc1ccccc1-c1nnc(-c2ccccc2Cl)nn1 | 3.1 | –
28 | COc1ccc(C(O)(c2cncnc2)C2CC2)cc1 (stereo not given) | 1.91 | –
29 | CCCSP(=O)(OCC)SCCC | 3.59 | –
30 | CCCCCCCCSCCO | 3.64 | –
31 | CNc1nc(NC(C)C)nc(SC)n1 | 2.38 | –
32 | CCOC(=O)CCN(Cc1ccccc1)SN(C)C(=O)O/N=C(/C)SC | 3.43 | –
33 | C#CCC1=C(C)C(OC(=O)C2C(C=C(C)C)C2(C)C)CC1=O (stereo not given) | 4.49 | –
34 | COC(=O)Nc1cccc(OC(=O)Nc2cccc(C)c2)c1 | 3.59 | –
35 | CCOc1ccc(C(C)(C)COCc2cccc(Oc3ccccc3)c2)cc1 | 7.05 | –
36 | N#CC(=NOCC1OCCO1)c1ccccc1 | 2.76 | –
37 | CC1(C)CON(Cc2ccccc2Cl)C1=O | 2.5 | –
38 | O=C(NC(=O)c1c(F)cccc1F)Nc1ccc(CO/N=C(/c2ccc(Cl)cc2)C2CC2)cc1 | 6.97 | –
39 | CC(Oc1ccc(Oc2cnc3cc(Cl)ccc3n2)cc1)C(=O)OCC1CCCO1 (stereo not given) | 4.32 | –
40 | O=C1C(Cl)C(CCl)CN1c1cccc(C(F)(F)F)c1 (stereo not given) | 3.36 | –
41 | CC(C)C(O)(c1ccc(OC(F)(F)F)cc1)c1cncnc1 (stereo not given) | 3.34 | –
42 | CCOCn1c(-c2ccc(Cl)cc2)c(C#N)c(Br)c1C(F)(F)F | 4.83 | –
43 | CC(Oc1ccc(Oc2ccc(Cl)cc2Cl)cc1)C(=O)O (stereo not given) | 4.58 | –
44 | Cc1nc(N(C)C)nc(OC(=O)N(C)C)c1C | 1.7 | –
45 | CC1=C(C)S(=O)(=O)CCS1(=O)=O | -0.17 | –
46 | CCOC(=O)CCCOc1ccc(Cl)cc1C | 4.26 | –

Row | SMILES | logP | solubility [mM]
47 | CCCCOC(=O)C(C)Oc1ccc(Oc2ccc(C(F)(F)F)cn2)cc1 (stereo not given) | 4.5 | –
48 | CC1COc2ccccc2N1C(=O)C(Cl)Cl (stereo not given) | 2.7 | –
49 | S=C([S-])NCCNC(=S)[S-].[Na+].[Na+] | – | 780
50 | CCC1OCC(COc2ccc(Oc3ccccc3)cc2)O1 (stereo not given) | 4.35 | –
51 | CCOC(=O)CCN(SN(C)C(=O)Oc1cccc2c1OC(C)(C)C2)C(C)C | 4.3 | –
52 | CC(Oc1ccc(Oc2ncc(Cl)cc2Cl)cc1)C(=O)N1CCCO1 (stereo not given) | 3.36 | –
53 | CNC(=O)N(C)c1nc2ccccc2s1 | 2.64 | –
54 | CCN(CC)C(=O)SCc1ccccc1Cl | 3.43 | –
55 | CN(C)C(=O)SCCCCOc1ccccc1 | 3.28 | –
56 | C=C(C)CN(CC)c1c([N+](=O)[O-])cc(C(F)(F)F)cc1[N+](=O)[O-] | 5.11 | –
57 | O=C1c2ccccc2C(=O)C1C(=O)C(c1ccccc1)c1ccccc1 | – | 0.000881 (≈ 0.3 µg/mL)
58 | CCOP(=S)(OCC)OP(=S)(OCC)OCC | 3.99 | –
59 | c1coc(-c2nc3ccccc3[nH]2)c1 | 2.67 | –
60 | CCOC(=O)c1cn2nc(OP(=S)(OCC)OCC)cc2nc1C | 3.8 | –
61 | CCOC(=O)Nc1cccc(OC(=O)Nc2ccccc2)c1 | 3.39 | –
62 | O=C1C(Cl)=C(Cl)C(=O)N1c1ccc(F)cc1 | 2.3 | –
63 | Fc1ccc(C2(Cn3cncn3)OC2c2ccccc2Cl)cc1 (stereo not given) | 3.44 | –
64 | O=C(NC(=O)c1c(F)cccc1F)Nc1ccc(Cl)c(Oc2ncc(C(F)(F)F)cc2Cl)c1 | 5.1 | –
65 | CCCOC(=O)c1ccc(C(=O)OCCC)nc1 | 3.57 | –
66 | O=C1CCc2cccc3c2N1CC3 | 1.57 | –
67 | CC1(C)C(C=C(Cl)Cl)C1C(=O)OC(C#N)c1ccc(F)c(Oc2ccccc2)c1 (stereo not given) | 5.95 | –

same assay, conditions: 20 °C

Row | SMILES | solubility [mM]
68 | Cc1cnc2c(C(=O)O)c(Cl)ccc2c1 | 1.01 (≈ 223 µg/mL)
69 | O=C1c2ccccc2C(=O)C1C(=O)C(c1ccccc1)c1ccc(Cl)cc1 (stereo not given) | 0.267 (≈ 100 µg/mL)
70 | COC(=O)/C(C)=C/OP(=S)(OC)OC | 1.67 (≈ 400 µg/mL)
